# Measured values as given in patent publication US20060276970A1, “Apparatus and method for the ozone preservation of crops” (Biofresh Limited, priority 2003, published 2006).
# Assays:
# [1] = tested on: Aco1, Aos, Chit3α, Chit9b, Glucac, Glucbs, Hpl; experiment: Gene expression (RT-PCR) in tomato fruit induced by wounding/pathogen; assay type: in vivo, Lycopersicon esculentum L.; conditions: 50 ppb ozone
# Description: (§1) (a) Fruit were incubated in clean air prior to transfer to an atmosphere containing a trace level of ozone in such a manner that fruit were wound-inoculated with the pathogen at the same physiological age. For gene expression studies, RNA was extracted from fruit snap-frozen in liquid nitrogen 24 h after wounding/inoculation, immediately following exposure to ‘clean air’ or ozone, and after 1 or 2 weeks' storage in ‘clean air’
# Shifts in gene expression patterns were therefore consistent with the observed effects of trace ozone-enrichment on the development of a variety of fungal pathogens.
# FIG. 7. Ozone-induced suppression of gene expression (probed by RT-PCR) induced by wounding/pathogen. Aco1 (aminocyclopropancarboxylic acid oxidase) and Aos (allene-oxide synthase) govern the production of ethylene and jasmonate, respectively. These are key signalling molecules. Chit3a (chi3 type chitinase acidic), Chit9b (chi9-type chitinase basic), Glucac (β-1-3 glucanase acidic), Glucbs (β-1-3 glucanase basic), and Hpl hydroperoxide lyase) are all involved with defence against pathogens and other stresses. Gapdh was used as the control gene. Measurements made on tomato fruit (Lycopersicon esculentum L.) incubated throughout in controlled environment chambers maintained at 13° C. and 95% RH and ventilated with clean air or 50 ppb ozone. FIG. 7a, immediate; FIG. 7b, 1 week; FIG. 7c 2 weeks.
# Botrytis cinerea [2] = experiment: Grey mould lesion development on wound-inoculated tomato fruit in ozone-enriched air; assay type: in vivo; conditions: 50 ppb ozone, even for 2-8 h, 13° C., 95% RH
# From the text: Fruit were wound-inoculated with a mycelial plug containing the pathogen^2 at day 0, transferred to charcoal-filtered air (CFA) or an ozone enriched CFA environment and then removed at intervals to 'clean air'. ^1 Monitored using duplicate photometric analysers calibrated to US-EPA standards ^2 plugs (2.5 mm diameter) were removed from the advancing margins of 3-day-old B. cinerea cultures (4-5-day-old in the case of A. alternaria) and inserted into a superficial wound made in the surface of the fruit (two wound-inoculations per fruit) FIG. 1. Experimental design: Fruit maintained in 'clean air' (CFA, →) or ozone (50 ppb or 200 ppb (→) and then inoculated (↓) with an agar plug containing the pathogen. Exposure to ozone performed in the dark at 13° C. and 95%. FIG. 2. Impacts of ozone-enrichment on the development of grey mould (Botrytis cinerea) on tomato (Lycopersicon esculentum […]) fruit wound-inoculated with a mycelial plug (Lycopersicon esculentum […]). Fruit were maintained in controlled environment chambers at 13° C. and 95% RH ventilated with charcoal-filtered 'clean' air (CFA, □) or CFA plus a trace level of ozone (50 ppb, ●). For experimental design see FIG. 1. Values represent mean (±SE) for 3-4 replicate fruit. Experiments repeated several times.
# Botrytis cinerea [3] = experiment: Spore production on wound-inoculated easi-peel citrus, grapes and plums; assay type: in vivo; conditions: 100 ppb ozone, 13° C., 95% RH, grapes, plums
# Description: Fruit were wound-inoculated with spore suspensions of Botrytis cinerea, then incubated in either clean air or an atmosphere containing a trace level of ozone (100 ppb) at 13° C. and 95% RH.
# FIG. 4. Impact of a trace level of ozone enrichment (solid bars) on the development of Botrytis cinerea (based on spore counts) on easi-peel citrus, grapes & plums Fruit were wound-inoculated with spore suspensions containing 10^3 (‘low’ inoculum concentration), 10^5 (‘medium’ inoculum concentration) or 10^7 (‘high’ inoculum concentration) Botrytis cinerea, then incubated in clean air or an atmosphere containing a trace level of ozone (100 ppb) at 13° C. and 95% RH, After 8-12 d, spores were washed from inoculated fruit, counts made on a haemocytometer and aliquots incubated on agar. Control fruit were maintained in ‘clean air’ (cross-hatch bars).
# Plates 2a & 2b. Impact of a trace level of ozone enrichment on the development of Botrytis cinerea on easi-peel citrus and plums. Fruit were wound-inoculated with/in spore suspensions containing 10^3 (‘low’ inoculum concentration), 10^5 (‘medium’ inoculum concentration) or 10^7 (‘high’ inoculum concentration) Botrytis cinerea, then incubated in clean air or an atmosphere containing a trace level of ozone (100 ppb) at 13° C. and 95% RR Control fruit were maintained in ‘clean air’.
# [4] = tested on: silver scurf (Helminthosporium solani); experiment: Silver scurf development on stored potato tubers (spore counts, lesion area); assay type: in vivo; conditions: for Lesion development (%): potato tubers; for Spores/ml: potato tubers cv. Estima, 3.5° C. then 13° C.
# Description: Tubers […] were washed and selected for similar levels of silver scurf (Helminthosporium solani) infection. Prior to storage, tubers were sprayed with water in order to simulate a condensation event to promote the development of the disease. Tubers were then placed in chambers maintained at 3.5° C.±0.5° C., >95% RH) ventilated with either 'clean air' (charcoal-filtered air'; CFA) or 'clean air' plus a trace level of ozone (200 ppb). After four weeks, half the tubers were removed, then the temperature raised to 13±0.5° C. […] A spore count was calculated for each tuber (n=10) using a haemocytometer. Additionally, the initial and final surface area covered in silver scurf lesions was measured using a […] devices image analyser. Taking into account shrinkage of the potato over the storage period, the percentage of each tuber covered in silver scurf was calculated.
# Alternaria alternata [5] = experiment: Black spot development on wound-inoculated tomato fruit in ozone-enriched air; assay type: in vivo; conditions: 50 ppb ozone, even for 2-8 h
# Description: The development of black spot (Alternaria alternata) was suppressed by more than 50% in fruit maintained in an atmosphere containing a trace level of ozone (50 ppb)—even for a relatively short period of time (2-8 h). Fruit were inoculated with a mycelial plug containing the pathogen and the experiment was performed according to design B (FIG. 1).
# FIG. 3. Impacts of ozone-enrichment on the development of black spot (Alternaria alternata) raised on tomato fruit (Lycopersicon esculentum L. cv. Mareta) wound-inoculated with an agar plug containing mycelia of the pathogen. Fruit were maintained in controlled environment chambers at 13° C. and 95% RFL Chambers were ventilated with ‘clean’ (chracoal-filtered) air (CFA, □) or CFA plus a trace level of ozone (50 ppb, ●). Values represent mean (±SE) for 3-4 replicate fruit.
# Botrytis cinerea [6] = experiment: Vaccination: tomato fruit exposed to ozone before wound-inoculation with grey mould; assay type: in vivo
# Description: Tomato fruit were incubated for varying periods in ‘clean’ air or an atmosphere enriched with a trace level of ozone (50 ppb), then wound-inoculated with a mycelial plug of grey mould (Botrytis cinerea). Two experimental designs were adopted for the investigation of ‘memory’ effects induced by ozone:
# as §1
# Or, (b) Fruit were incubated in clean air or ozone and wound-inoculated with Botrytis cincerea either (i) immediately following the period of exposure, (ii) following 1 weeks' incubation in ‘clean air’ or (iii) following 2 weeks' incubation in ‘clean air’
# FIG. 5. Experimental designs to test whether exposure to a trace level of ozone vaccinates produce against subsequent infection. Tomato fruit were maintained in charcoal filtered air (CPA, →) or ozone (→) prior to wound-inoculation (↓) with grey mould (Botrytis cinerea). […] Lesion development was monitored during storage in clean air, over a 7-d incubation period. […]
# [7] = tested on: targeted fungal pathogens; experiment: Colony development of fungal pathogens in vitro; assay type: cell-based; conditions: ozone concentrations upto 5.0 ppm
# From the text: This implies that the observed suppression of spoilage organisms by ozone results from molecular/biochemical changes in the treated produce per se—presumably through subtle shifts in the manner in which plant tissue responds to challenge by pathogens (see FIG. 7).
# Botrytis cinerea [8] = experiment: Spore production and viability on wound-inoculated tomato fruit; assay type: in vivo; conditions: for Spore germ.: 50 ppb O3, recovered spores on agar, 72 h incubation; for Spore prod.: 50 ppb O3, tomato fruit, 13° C., 95% RH, after 9-12 d
# Description: (§2) Fruit were wound-inoculated with a suspension containing c. 25×10^3 spores of Botrytis, Alternaria or Colletotrichum, then incubated in clean air or in an atmosphere containing a trace level of ozone (50 ppb) at 13° C., 95% RH. After 9-12 d, spores were washed from inoculated fruit, counts made on a haemocytometer and recovered spore aliquots inoculated onto agar. In vitro spore germination was monitored following 72 h incubation in ‘clean air’ or ‘clean air’ plus a trace level of ozone.
# Alternaria alternata [9] = experiment: as above; assay type: in vivo; conditions: for Spore prod.: 50 ppb O3, tomato fruit, 13° C., 95% RH, after 9-12 d
# Description: as §2
# Colletotrichum coccodes = experiment: as above; assay type: in vivo; conditions: for Spore germ.: 50 ppb O3, recovered spores on agar, 72 h incubation; for Spore prod.: 50 ppb O3, tomato fruit, 13° C., 95% RH, after 9-12 d
# Description: as §2
# [10] = 200 ppb ozone weeks 1-4, NFA weeks 5-8
# [11] = 200 ppb ozone weeks 1-4 and weeks 5-8
smiles,measurement,setting,value
O=[O+][O-] [ozone],Persistence of gene expression effects after transfer to clean air,[1],persisted for upto two weeks
same,Expression of signal-transduction and defence genes,"[1]; 13° C., 95% RH",decline
same,Grey mould lesion development,Botrytis cinerea [2],dramatically suppressed
same,Development of the pathogen (based on spore production),Botrytis cinerea [3],dramatically reduced
same,Lesion development (%),[4]; [10],21.34 a %
same,Spores/ml,[4]; [10],3.9 × 10^6 c Spores/ml
same,Lesion development (%),[4]; [11],12.81 b %
same,Spores/ml,[4]; [11],1.7 × 10^6 b Spores/ml
same,Suppression of black spot development,Alternaria alternata [5],more than 50%
same,Persistence of vaccination effect after removal from ozone,Botrytis cinerea [6]; tomato fruit transferred to clean air,persisted for up to two weeks
same,Pathogen development after prior exposure to ozone,"Botrytis cinerea [6]; trace level of ozone (50 ppb), even 2-8 h, before inoculation, tomato fruit",marked suppression
same,Direct effects on colony development in vitro,[7],No direct effects
same,Spore germ.,Botrytis cinerea [8],significantly reduced
same,Spore germ.,Botrytis cinerea [8]; listed as O3,96.76 ± 0.613
same,Spore prod.,Botrytis cinerea [8],dramatically reduced
same,Spore prod.,Botrytis cinerea [8]; listed as O3,7.50 ± 1.510
same,Spore germ.,"Alternaria alternata [9]; 50 ppb O3, recovered spores on agar, 72 h incubation",99.86 ± 0.137
same,Spore prod.,Alternaria alternata [9],dramatically reduced
same,Spore prod.,Alternaria alternata [9]; listed as O3,5.83 ± 0.645
same,Spore germ.,Colletotrichum coccodes,significantly reduced
same,Spore germ.,Colletotrichum coccodes; listed as O3,52.50 ± 4.550
same,Spore prod.,Colletotrichum coccodes,dramatically reduced
same,Spore prod.,Colletotrichum coccodes; listed as O3,2.44 ± 0.526
